Assay results taken from patent publication US20250268921A1, “OPTHALMIC FORMULATIONS AND USES THEREOF” (TelomEYE Pharmaceutical Corporation, priority 2018, published 2025).

What was measured:
[1] = test system: corneal endothelial cells; test: Corneal endothelial cell density (CD) by specular microscopy, rabbits treated 6 months; type: in vivo, rabbit
Experimental: All experiments were designed and carried out in a randomized, double blind manner using placebos. Rabbits were housed for one week prior to the study, fed on standard laboratory food and allowed free access to water in a room at standard temperature and humidity conditions in a 12-h light/12-h dark cycle.
All analyses were carried out using GraphPad Prism 5.0 (GraphPad Software, San Diego, CA, USA). Differences were considered to be significant at a level of P: : : : 0.001.

[2] = Rabbit ocular pharmacokinetic model; type: in vivo; details: zero hour, after 5 days of eye drops, without last administration
Experimental: At the end of the fifth day, blood, tear, cornea, anterior chamber fluid, iris and lens tissues were collected at 30, 60, 120, 240 and 480 minutes following the last administration of 4 μg/50 μl. […] According to the results of the drug analysis at the 30th minute, the highest drug concentrations of 215.56 ng in the corneal tissue, 4 ng in the anterior chamber and 14.12 ng in the iris were detected individually, proving that the drug passes into the corneal tissue after application to the corneal surface and reaches the intraocular tissues.

telomerase = target: T1, telomerase (Homo sapiens, UniProt O14746); test: TeloTAGGG Telomerase PCR ELISA assay in HCEC-B4G12; type: cell-based; details: for % Telomerase Activity ± SD: 30 hours
T1 construct: endogenous in cells; host or cells: HCEC-B4G12 (DSMZ ACC 647)
T1 sequence (O14746 whole entry): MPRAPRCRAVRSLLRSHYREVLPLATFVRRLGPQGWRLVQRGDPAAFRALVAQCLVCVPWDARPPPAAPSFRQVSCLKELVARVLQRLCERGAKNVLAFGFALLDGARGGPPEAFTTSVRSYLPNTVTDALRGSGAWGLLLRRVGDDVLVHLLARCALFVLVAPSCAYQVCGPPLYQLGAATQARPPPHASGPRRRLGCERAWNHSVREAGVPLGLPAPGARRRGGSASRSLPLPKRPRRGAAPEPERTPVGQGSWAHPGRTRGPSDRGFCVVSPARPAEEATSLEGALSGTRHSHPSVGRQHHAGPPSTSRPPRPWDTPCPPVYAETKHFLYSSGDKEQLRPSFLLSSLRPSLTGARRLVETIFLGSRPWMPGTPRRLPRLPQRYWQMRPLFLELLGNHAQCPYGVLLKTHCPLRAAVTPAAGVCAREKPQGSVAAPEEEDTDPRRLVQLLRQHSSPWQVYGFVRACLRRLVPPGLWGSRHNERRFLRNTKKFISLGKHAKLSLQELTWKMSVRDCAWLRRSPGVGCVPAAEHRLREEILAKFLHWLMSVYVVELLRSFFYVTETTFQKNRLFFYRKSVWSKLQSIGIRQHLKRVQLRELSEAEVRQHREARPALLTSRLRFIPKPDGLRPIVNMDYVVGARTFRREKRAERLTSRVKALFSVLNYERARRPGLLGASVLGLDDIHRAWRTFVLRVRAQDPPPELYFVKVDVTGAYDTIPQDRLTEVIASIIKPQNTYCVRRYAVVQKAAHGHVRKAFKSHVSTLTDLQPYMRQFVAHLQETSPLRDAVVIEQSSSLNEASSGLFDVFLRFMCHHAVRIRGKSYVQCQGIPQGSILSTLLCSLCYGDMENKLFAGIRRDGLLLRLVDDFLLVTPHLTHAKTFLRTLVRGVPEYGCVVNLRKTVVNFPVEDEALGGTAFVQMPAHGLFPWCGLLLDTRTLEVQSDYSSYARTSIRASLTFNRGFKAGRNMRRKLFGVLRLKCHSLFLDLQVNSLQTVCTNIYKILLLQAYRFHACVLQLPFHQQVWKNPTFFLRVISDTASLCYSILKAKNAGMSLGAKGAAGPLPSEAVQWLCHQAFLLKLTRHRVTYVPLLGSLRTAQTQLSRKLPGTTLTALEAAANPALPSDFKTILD
Experimental: TeloTAGGG™ Telomerase PCR ELISA assay was performed as described by manufacturer (Sigma-Aldrich).

corneal endothelium = test: Histopathology of corneal layer, treated rabbits; type: in vivo, rabbit
Experimental: Eye tissue was fixed with 4% formaldehyde and embedded in paraffin for the histopathological assessment and processed according to routine light microscope tissue processing methods. 5 μm tissue sections stained with Hematoxylin-Eosin (H&E) were examined and photographed by Leica image analyzing system (Leica, Germany). All specimens were evaluated individually by three histologists who were blinded to the drug type and the treatment times. Histopathology was also performed to evaluate the corneal opacity, neovascularization, inflammatory cell density, vessel size and edema. Moreover, lens structure, scleral, choroidal and macular changes were analyzed by histopathology.

[3] = test system: telomere length in corneal endothelial cells; test: Telomere length (TAT analysis) in corneal endothelial cells from treated rabbits; type: in vivo, rabbit; details: 6 months
Experimental: Samples were received in paraffin.
The sample is filtered to remove collagen residues. Telomere lengths were assessed using Life Length's.
All measurements were performed in quintuplicate.

CC(C)(O)[C@@H]1CC[C@](C)([C@H]2[C@@H](O)C[C@@]3(C)[C@@H]4C[C@H](O)[C@H]5C(C)(C)[C@@H](O)CC[C@@]56C[C@@]46CC[C@]23C)O1 [cycloastragenol, Cycloastragenol]
Cell Density (CD) of cornea layer endothelial cells ([1]; Group B, 25 ng/ml, month 0): 2531.00
Cell Density (CD) of cornea layer endothelial cells ([1]; Group B, 25 ng/ml, month 1): 2612.38
change in cell density versus month 0 ([1]; Group B, 25 ng/ml, month 1): 3%
higher cell density than negative control group ([1]; Group B, 25 ng/ml, month 1): about 4%
higher cell density than placebo group ([1]; Group B, 25 ng/ml, month 1): about 4%
Cell Density (CD) of cornea layer endothelial cells ([1]; Group B, 25 ng/ml, month 3): 2604.50
change in cell density versus month 0 ([1]; Group B, 25 ng/ml, month 3): 3%
higher cell density than negative control group ([1]; Group B, 25 ng/ml, month 3): ~18%
higher cell density than placebo group ([1]; Group B, 25 ng/ml, month 3): ~18%
Cell Density (CD) of cornea layer endothelial cells ([1]; Group B, 25 ng/ml, month 6): 2545.88
change in cell density versus month 0 ([1]; Group B, 25 ng/ml, month 6): 4%
higher cell density than negative control group ([1]; Group B, 25 ng/ml, month 6): ~19%
higher cell density than placebo group ([1]; Group B, 25 ng/ml, month 6): ~20%
Cell Density (CD) of cornea layer endothelial cells ([1]; Group C, 100 ng/ml, month 0): 2689.88
Cell Density (CD) of cornea layer endothelial cells ([1]; Group C, 100 ng/ml, month 1): 2741.13
Cell Density (CD) of cornea layer endothelial cells ([1]; Group C, 100 ng/ml, month 3): 2453.88
Cell Density (CD) of cornea layer endothelial cells ([1]; Group C, 100 ng/ml, month 6): 2472.38
Cell Density (CD) of cornea layer endothelial cells ([1]; Group D, 500 ng/ml, month 0): 2875.13
Cell Density (CD) of cornea layer endothelial cells ([1]; Group D, 500 ng/ml, month 1): 2835.38
Cell Density (CD) of cornea layer endothelial cells ([1]; Group D, 500 ng/ml, month 3): 2498.50
Cell Density (CD) of cornea layer endothelial cells ([1]; Group D, 500 ng/ml, month 6): 2488.88
concentration in eye tissues [2]: below 1 ng
% Telomerase Activity ± SD (telomerase; 3.8 ng/ML): 108 ± 5.27%
% Telomerase Activity ± SD (telomerase; 7.8 ng/ML): 114.42 ± 2.79%
% Telomerase Activity ± SD (telomerase; 15.6 ng/ML): 148.94 ± 49.54%
% Telomerase Activity ± SD (telomerase; 125 ng/ML): 43.14 ± 0.24%
% Telomerase Activity ± SD (telomerase; 250 ng/ML): 46.28 ± 2.02%
% Telomerase Activity ± SD (telomerase; 500 ng/ML): 54.38 ± 2.78%
% Telomerase Activity ± SD (telomerase; 10000 ng/ML, placebo (1% DMSO) = 100%): 74.0 ± 10.45%
telomerase activity compared with negative control (telomerase; 3.8-62.5 ng/ml): higher telomerase activity than negative control
telomerase activity, times higher than the negative control (telomerase; 62.5-31.25 ng/ml): 7-10 times
telomerase activity compared with negative control (telomerase; 125-1000 ng/ml): lower than negative control
concentration giving the highest activity of telomerase (telomerase; HCEC-B4G12): 62.5 ng/mL
histopathological finding, corneal endothelium (corneal endothelium; Group B, 25 ng/ml, compared to group A): cell losses were observed in very few areas
histopathological finding, corneal endothelium (corneal endothelium; Group C, 100 ng/ml): configuration and number of cells were found to be close to Group NC
histopathological finding, corneal endothelium (corneal endothelium; Group D, 500 ng/ml, compared to Group B and Group C): more hypertrophic and place cell losses
2am Percentile Length ([3]; GROUP B, 25 ng/ml): 6,968 Base Pairs
Median Length ([3]; GROUP B, 25 ng/ml): 11,431 Base Pairs
Telomeres <3 Kbp ([3]; GROUP B, 25 ng/ml): 3.7%
2am Percentile Length ([3]; GROUP C, 100 ng/ml): 7,374 Base Pairs
Median Length ([3]; GROUP C, 100 ng/ml): 11,543 Base Pairs
Telomeres <3 Kbp ([3]; GROUP C, 100 ng/ml): 3.1%
2am Percentile Length ([3]; GROUP D, 500 ng/ml): 7,113 Base Pairs
Median Length ([3]; GROUP D, 500 ng/ml): 11,552 Base Pairs
Telomeres <3 Kbp ([3]; GROUP D, 500 ng/ml): 3.6%
